# Reference: US20200141935A1, “SYSTEM, METHOD, APPARATUS AND DIAGNOSTIC TEST FOR PREGNANCY” (BARCELONA INSTITUTE FOR GLOBAL HEALTH, priority 2017, published 2020)
# Tested on: P. falciparum
# Experiment: Prevalence of infection by qPCR at delivery by intermittent preventive treatment group
# Type: in vivo, pregnant women
# Settings: for PCR prevalence of infection (%): by IPTp group
# Experimental: All women included in the study received bed nets treated with long-lasting insecticide. At delivery, HIV serostatus was assessed using a rapid diagnostic test and hemoglobin was determined in capillary blood sample using mobile devices (HemoCue, Hemocontrol and Sysmex KX analyzer). Tissue samples from the maternal side of the placenta, as well as maternal peripheral-, placental-blood samples were collected at delivery. Dried blood spots onto filter paper were prepared (50 ul) and blood was collected into EDTA vacutainers and centrifuged, with the plasma stored at −20° C. […] Clinical malaria episodes were treated according to national guidelines at the time of the study. Biases due to pooling of data from these two clinical trials were minimized by the use of similar protocols and procedures during the two trials. […] P. falciparum infection at delivery was defined if peripheral or placental blood samples were positive by microscopy or qPCR or if histology positive (active or chronic). Infection during pregnancy was defined if peripheral or placental blood samples were positive by microscopy or qPCR at any time-point of collection, if P. falciparum detected by hospital passive case detection (PCD), or if histology positive (active, chronic or past) on the sub-set of women from longitudinal cohort. Seroprevalences between countries (Benin, Gabon and Mozambique for HIV-uninfected and Kenya and Mozambique for HIV-infected), between IPTp intervention group (MQ vs SP for HIV-uninfected and MQ vs Placebo for HIV infected) and anemia status were compared by logistic regression models adjusted by parity, age and treatment.
# [1] = HIV uninfected, qPCR in peripheral and placental blood at delivery
Compound,"PCR MQ (OR) (HIV infected, MQ with Placebo as reference)","PCR prevalence of infection (%) (HIV infected, qPCR at delivery)",PCR prevalence of infection (%) [1] [%],"PCR SP (OR) (HIV uninfected, SP with MQ as reference)"
"OC(c1cc(C(F)(F)F)nc2c(C(F)(F)F)cccc12)C1CCCCN1 (centres unmarked) [MQ, mefloquine]",0.24 (0.10; 0.59),2,18,–
sulfadoxine-pyrimethamine [SP],–,–,27,1.93 (1.28; 2.91)
